Data: patent publication US7196070B2, “Prophylactic and therapeutic treatment of the ductal epithelium of a mammary gland for cancer” (priority 1995, dated 2007)

Tested on: NMU-induced mammary tumors
Assay: Prophylaxis of NMU-induced mammary tumors after intraductal injection
Assay type: in vivo, Sprague Dawley rats
Conditions: rat mammary glands, NMU 50 mg/kg i.v. after treatment, monitored 8 months
Protocol: The mammary glands (6 on each side) of six virgin 50 day old Sprague Dawley rats were injected with AdHS-tk on the left side and trypan blue on the right side or left untreated. One rat remained completely untreated with the virus or GCV and served as a positive control for NMU-induced tumorigenesis. On the day of surgery, rats were given an intramuscular injection of 5 μg estradiol valerate and were anesthetized with an isofluorane/O2 mixture. The nipples were cannulated with a 33 gauge needle. Twenty μl of AdHS-tk diluted in trypan blue carrier (1 mM MgCl2, 20 μg/ml polybrene in 10% glycerol, 0.4% trypan blue in saline) at a concentration of 5×10^7 particles/μl were injected into the duct. Carrier control mammary glands received 20 μl of trypan blue carrier alone. An animal was considered treated when at least three glands were successfully injected with trypan blue and another three glands were successfully injected with AdHS-tk. The remaining glands were left untreated. Twelve hrs later, the rats were injected with 125 mg/kg body weight GCV twice daily for three days. […] Five to seven days after GCV treatment, the rats were given an intravenous injection of NMU dissolved in 0.05% acetic acid (Ash Stevens, CO; 50 mg NMU/kg body weight) and were subsequently monitored for general health and the appearance of tumors at weekly intervals for 8 months.

Nc1nc(O)c2ncn(COC(CO)CO)c2n1 [Ganciclovir, ganciclovir]
% of Glands with Tumor: 25.0%
No. of Tumors: 5
